Results on 12 compounds are retold here after ChEMBL document CHEMBL1201862, “PubChem BioAssay data set” (2004).

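1) Cells in 96-well plates. 2) Compound, 48 h, 5 concentrations. 3) Linear interpolation between surrounding doses. 4) Unreached endpoint = highest concentration. Abbreviation: GI50, concentration required for 50% inhibition of growth.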 Calls of active or inactive are those of the source. No stated cut-off is given here; in the data, active = GI50 up to about 1.1 µM and inactive = higher.

Holding throughout (experiment): inhibition of tumour cell growth, NCI panel, 48 h
For test [1], the system named is NCI-H226.
The test system of test [2] is SN12C.
Test [3] concerns SNB-19.
For test [4], the system named is CAKI-1.
Test [5] concerns SF-295.
For test [6], the system named is Hs-578T.
Test [7] has as its system UACC-62.
Test [8] concerns Malme-3M.
Test [9] has as its system MDA-N.
The test system of test [10] is SK-MEL-2.
The test system of test [11] is KM12.
Test [12] has as its system NCI-H460.
The test system of test [13] is K562.
For test [14], the system named is LOX IMVI.
In test [15] the test system is DU-145.
The subject of test [16] is MDA-MB-435.
The test system of test [17] is OVCAR-3.
Test [18] deals with ACHN.
Test [19] concerns BT-549.

Take `CC1(C)CC(=O)/C(=C/C2CCNC2=S)C(=O)N1` (stereo unspecified): the GI50 in [1] is > 100 µM (inactive); in test [2], 82.4 µM (inactive); in test [3], > 100 µM (inactive); in test [4], > 100 µM (inactive); in [5], > 100 µM (inactive); in test [6], > 100 µM (inactive). For the same compound, the GI50 in test [7], in test [8], in [9], in [10], in test [11] and in test [12] was > 100 µM (inactive) each time. Also, the GI50 in [13], in test [14], in [15], in test [16], in test [17] and in test [18] was > 100 µM (inactive) in each case.

For `Cc1cc(C)cc(Nc2nnc3n2S(=O)(=O)c2cc(C)c(Cl)cc2S3)c1`, the GI50 is 3.07 µM (inactive) in [1]; 5.61 µM (inactive) in test [2]; 4.3 µM (inactive) in [3]; 7.11 µM (inactive) in test [4]; 7.03 µM (inactive) in test [5]; 2.94 µM (inactive) in [6]. Further, the GI50 in [7] was 5.65 µM (inactive); in test [8], 1.87 µM (inactive); in test [10] it was 2.7 µM (inactive); in test [11] it was 8.38 µM (inactive); in [12], 4.29 µM (inactive); in test [13], 3.01 µM (inactive). Further, the GI50 was 4.22 µM (inactive) in [19]; 3.44 µM (inactive) in test [14]; 10.3 µM (inactive) in [15]; 6.03 µM (inactive) in test [16]; 4.27 µM (inactive) in [17]; 7.66 µM (inactive) in test [18].

In the case of `COC(=O)C(CSSC[C@H](N/C(C)=C/C(C)=O)C(=O)OC)N/C(C)=C/C(C)=O` (stereo partly specified), the GI50 is > 100 µM (inactive) in [1]; 48.8 µM (inactive) in [2]; > 100 µM (inactive) in [3]; 17.3 µM (inactive) in test [4]; 35.2 µM (inactive) in test [5]; 21.6 µM (inactive) in test [6]. Besides, the GI50 in [7] was 64.4 µM (inactive); in test [8] it was 14.4 µM (inactive); in test [9] it was 52.8 µM (inactive); in test [10] it was > 100 µM (inactive); in test [11], 28.8 µM (inactive); in [12] it was > 100 µM (inactive). In addition, the GI50 in test [13] is 33.3 µM (inactive); in test [14], 14 µM (inactive); in test [15] it was 25.7 µM (inactive); in [16], 74.5 µM (inactive); in test [17] it was 4.17 µM (inactive); in test [18], < 0.01 µM (active).

Regarding `CCOc1ccnc2c(OC)c(C)c3nc4ccccc4nc3c12`, the GI50 in test [1], in test [2], in test [3], in test [4], in [5] and in test [6] was > 100 µM (inactive) in each case. Also, the GI50 was > 100 µM (inactive) in test [8]; > 100 µM (inactive) in test [9]; > 100 µM (inactive) in test [10]; 86.5 µM (inactive) in [11]; > 100 µM (inactive) in test [12]; 98.6 µM (inactive) in test [13]. Also, the GI50 is > 100 µM (inactive) in test [14]; 41 µM (inactive) in test [15]; > 100 µM (inactive) in test [16]; > 100 µM (inactive) in test [17]; > 100 µM (inactive) in test [18].

For the compound `CCC1=CC(OCc2ccccc2)C(CCN(Cc2ccccc2)C(=O)OCc2ccccc2)C1` (stereo unspecified), the GI50 in test [1] was 15.7 µM (inactive); in test [3], 14.8 µM (inactive); in test [4] it was 14.7 µM (inactive); in test [5] it was 14.8 µM (inactive); in [6] it was 11.5 µM (inactive); in [7], 10.9 µM (inactive). The GI50 in test [8] is 15.6 µM (inactive); in test [9], 30.4 µM (inactive); in [10], 20.2 µM (inactive); in test [11], 15.6 µM (inactive); in test [12] it was 15.3 µM (inactive); in test [13], 11 µM (inactive). Besides, the GI50 in [14] was 14.9 µM (inactive); in [15] it was 16.4 µM (inactive); in [16], 17.1 µM (inactive); in [17], 14.2 µM (inactive); in test [18], 15.3 µM (inactive).

Regarding `N#CC1(N2CCCC2)CCC2(CC1)OCCO2`, the GI50 in test [1], in [2], in test [3], in test [4], in test [5] and in test [7] was > 100 µM (inactive) throughout. Besides, the GI50 in [8], in test [10], in test [11], in test [12], in [13] and in [14] was > 100 µM (inactive) in each case. Further, the GI50 in test [17] and in [18] was > 100 µM (inactive) in each case.

Regarding `COC1=CC(c2ccc(Br)[nH]2)=N/C1=C/NCC(C)C`, the GI50 in [2] is 2.21 µM (inactive); in [3], 3.6 µM (inactive); in [4], 2.36 µM (inactive); in [5], 1.6 µM (inactive); in test [6], 2.29 µM (inactive); in test [7], 1.98 µM (inactive). The GI50 in [8] is 1.75 µM (inactive); in test [10], 1.5 µM (inactive); in test [11] it was 1.26 µM (inactive); in [12] it was 1.62 µM (inactive); in [13] it was 2.65 µM (inactive); in test [15], 0.475 µM (active). Moreover, the GI50 in test [16] is 1.93 µM (inactive); in test [17] it was 1.62 µM (inactive); in [18], 1.21 µM (inactive).

In the case of `CN(C(=O)[C@@H](NC(=O)OC(C)(C)C)c1ccccc1)[C@H]1CCCC[C@@H]1N1CCCC1`, the GI50 in test [1], in test [2], in [3], in [4], in [5] and in [6] was > 100 µM (inactive) in each case. Further, the GI50 in test [7], in test [10], in test [11], in test [13], in test [19] and in [15] was > 100 µM (inactive) in each case. The GI50 in [16], in [17] and in test [18] was > 100 µM (inactive) each time.

For `COC(=O)c1ccc2c(c1)CC1(C2)Cc2cc3c(cc2C1)CCC3`, the GI50 is > 100 µM (inactive) in test [3]; > 100 µM (inactive) in test [4]; > 100 µM (inactive) in [5]; > 100 µM (inactive) in test [6]; 79.6 µM (inactive) in test [8]; > 100 µM (inactive) in test [9]. In addition, the GI50 was 98.2 µM (inactive) in [10]; > 100 µM (inactive) in [12]; > 100 µM (inactive) in test [13]; > 100 µM (inactive) in test [14]; > 100 µM (inactive) in test [15]; > 100 µM (inactive) in test [16]. Besides, the GI50 in test [17] and in [18] was > 100 µM (inactive) each time.

In the case of `N#Cc1nc(C#N)c(NC(=O)c2ccccc2C(=O)O)[nH]1`, the GI50 in test [1], in test [2], in [3], in test [4], in test [5] and in test [6] was > 100 µM (inactive) throughout. Moreover, the GI50 in test [7], in [8], in [9], in [10], in [11] and in [13] was > 100 µM (inactive) throughout. Also, the GI50 in test [14], in test [15], in test [16], in [17] and in [18] was > 100 µM (inactive) in each case.

Turning to `COc1ccc(Oc2cccc(C3C4C(=O)N(c5ccc(C)c(Cl)c5)C(=O)C4ON3C(C(N)=O)c3ccccc3)c2)cc1` (stereo unspecified), the GI50 in test [1] was 15.6 µM (inactive); in test [2], 12.4 µM (inactive); in [3], 24 µM (inactive); in test [4], 21 µM (inactive); in test [5], 35.9 µM (inactive); in test [6] it was 17.9 µM (inactive). In addition, the GI50 in [7] was 10.9 µM (inactive); in test [8] it was 15.8 µM (inactive); in [9], 10.4 µM (inactive); in test [10], 11.2 µM (inactive); in test [11], 18 µM (inactive); in test [12], 14.8 µM (inactive). For the same compound, the GI50 in test [13] is 16.6 µM (inactive); in test [14] it was 13.7 µM (inactive); in [15] it was 9.59 µM (inactive); in test [16], 15.5 µM (inactive); in test [17], 16.7 µM (inactive); in [18], 23.5 µM (inactive).

On to `COC12OC3(C4OC41)C(C(=O)O[C@H]3CO[Si](C)(C)C(C)(C)C)C2S(=O)(=O)c1ccccc1` (stereo partly specified), for which the GI50 in test [1] was > 100 µM (inactive); in test [2] it was > 4.65 µM (inactive); in test [4], 2.71 µM (inactive); in [5], > 25.5 µM (inactive); in test [6] it was 4.65 µM (inactive); in [7] it was > 4.65 µM (inactive). Moreover, the GI50 was > 41.8 µM (inactive) in test [8]; > 4.65 µM (inactive) in [10]; > 62.1 µM (inactive) in test [12]; 1.6 µM (inactive) in test [13]; > 49.9 µM (inactive) in test [19]; > 4.65 µM (inactive) in test [15]. Also, the GI50 was > 4.65 µM (inactive) in [16], > 100 µM (inactive) in test [17] and 2.69 µM (inactive) in [18].
